Tests used:
retina = details: mouse, in vivo; cited from earlier work
Microsomal stability = type: in vitro ADME
BACE1 [1] = target: T1, BACE1 (Homo sapiens, UniProt P56817); experiment: BACE1 purified enzyme fluorescence polarization assay; type: biochemical; parameters: His (C); made in house; host or cells: CHO-K1; details: purified human enzyme, fluorescence polarization, peptide substrate
Protocol: (§1) Purified enzyme inhibition of BACE1, BACE2, CatD and CatE was determined using fluorescence polarization (FP) assays. Briefly, purified enzymes were treated with test compounds (1% DMSO, 37 °C) in the presence of synthetic peptide substrates (150 nM) in 30 μl total volume of NaOAc buffer (100 mM, pH 4.5, 0.0001% Tween-20) in a 384-well plate. After incubation, reactions were stopped and substrate captured by the addition of 1.5 μM streptavidin, and FP measured with an EnVision plate reader (PerkinElmer, excitation 485 nm, emission 530 nm). […] BACE2 activity was assessed with 0.5 nM recombinant BACE2 (R&D Systems 4097-AS) and the same synthetic substrate used for BACE1, with a 1 h incubation time. […] CatE activity was assessed with 1.0 nM recombinant CatE (Creative BioMart CTSE-255H) and the same synthetic substrate used for CatD, with a 1.5 h incubation time.
Target sequence in this assay (P56817 46-457): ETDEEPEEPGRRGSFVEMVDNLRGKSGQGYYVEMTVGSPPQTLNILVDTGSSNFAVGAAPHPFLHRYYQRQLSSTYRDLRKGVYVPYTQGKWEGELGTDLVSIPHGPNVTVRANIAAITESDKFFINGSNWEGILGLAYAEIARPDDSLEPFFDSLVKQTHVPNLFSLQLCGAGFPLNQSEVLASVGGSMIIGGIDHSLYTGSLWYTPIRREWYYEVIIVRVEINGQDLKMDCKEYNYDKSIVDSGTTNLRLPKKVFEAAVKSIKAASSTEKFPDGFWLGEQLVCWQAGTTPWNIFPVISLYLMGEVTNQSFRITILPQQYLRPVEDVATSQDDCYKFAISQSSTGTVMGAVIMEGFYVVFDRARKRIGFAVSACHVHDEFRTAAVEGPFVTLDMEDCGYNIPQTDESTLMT

CatD [2] = target: T2, CatD (Homo sapiens, UniProt P07339); experiment: PF-7802 labelling of HEK293T cells overexpressing CatD; type: cell-based; parameters: Myc-DDK (FLAG) (C); host or cells: HEK293T; details: 1 μM PF-7802, in-gel fluorescence
Protocol: (§2) Myc-DDK-tagged BACE1 and CatD were purchased as complementary DNA clones in the pCMV6-Entry vector (OriGene, catalogue nos RC209115 and RC200719). Site-directed mutagenesis was performed using the QuikChange II kit (Agilent) according to the manufacturer's protocols. For CatD M307A, forward primer 5′-[…]-3′ and its reverse complement primer were used. For CatD M309A, the forward primer was 5′-[…]-3′. Mutagenesis was confirmed by sequencing using primers provided by OriGene with the cDNA.
(§3) HEK-293T cells were plated at a density of 1 × 10^6 cells per well, allowed to adhere overnight and then transfected with Lipofectamine 3000 (Life Technologies) according to the manufacturer's protocol. […] Immunoblots were scanned using a LiCor Odyssey.
Target sequence in this assay (P07339 65-412): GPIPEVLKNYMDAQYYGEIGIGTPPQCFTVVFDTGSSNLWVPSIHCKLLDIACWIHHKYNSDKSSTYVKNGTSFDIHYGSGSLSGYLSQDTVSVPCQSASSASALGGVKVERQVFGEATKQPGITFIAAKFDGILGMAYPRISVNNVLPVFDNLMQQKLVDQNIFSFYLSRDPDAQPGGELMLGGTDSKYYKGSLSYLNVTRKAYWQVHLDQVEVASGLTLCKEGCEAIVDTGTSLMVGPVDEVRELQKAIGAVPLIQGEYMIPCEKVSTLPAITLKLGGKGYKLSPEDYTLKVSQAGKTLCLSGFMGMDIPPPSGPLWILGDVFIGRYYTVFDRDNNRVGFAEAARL

BACE2 = target: T3, BACE2 (Homo sapiens, UniProt Q9Y5Z0); experiment: BACE2 purified enzyme fluorescence polarization assay; type: biochemical; details: purified human enzyme, fluorescence polarization
T3 construct: purchased R&D Systems 4097-AS
T3 sequence (Q9Y5Z0 63-518): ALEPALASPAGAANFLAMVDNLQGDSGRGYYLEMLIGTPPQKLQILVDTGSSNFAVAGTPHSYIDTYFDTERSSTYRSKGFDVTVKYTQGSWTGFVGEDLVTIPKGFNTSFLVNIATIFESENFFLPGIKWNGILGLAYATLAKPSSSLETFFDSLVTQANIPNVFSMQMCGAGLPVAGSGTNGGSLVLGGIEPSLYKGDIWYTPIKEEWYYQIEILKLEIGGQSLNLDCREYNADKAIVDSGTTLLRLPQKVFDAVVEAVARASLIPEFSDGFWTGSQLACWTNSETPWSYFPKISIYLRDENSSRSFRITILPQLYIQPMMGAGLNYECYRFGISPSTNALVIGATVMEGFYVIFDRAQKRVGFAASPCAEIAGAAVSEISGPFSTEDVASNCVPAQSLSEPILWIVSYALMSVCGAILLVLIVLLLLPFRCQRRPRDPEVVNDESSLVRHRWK
Protocol: as §1

CatD [3] = target: T2, CatD; experiment: CatD purified enzyme fluorescence polarization assay; type: biochemical; parameters: final maturation into a non-covalently associated heavy chain and light chain; purchased Sigma C8696; host or cells: human liver; details: purified human enzyme, fluorescence polarization, substrate-based
Protocol: as §1
Target sequence in this assay (P07339 65-162 limits assumed): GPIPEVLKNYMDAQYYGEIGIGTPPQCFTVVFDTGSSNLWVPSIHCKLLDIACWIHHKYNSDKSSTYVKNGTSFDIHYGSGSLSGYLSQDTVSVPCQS
Target sequence in this assay (P07339 169-412 limits assumed): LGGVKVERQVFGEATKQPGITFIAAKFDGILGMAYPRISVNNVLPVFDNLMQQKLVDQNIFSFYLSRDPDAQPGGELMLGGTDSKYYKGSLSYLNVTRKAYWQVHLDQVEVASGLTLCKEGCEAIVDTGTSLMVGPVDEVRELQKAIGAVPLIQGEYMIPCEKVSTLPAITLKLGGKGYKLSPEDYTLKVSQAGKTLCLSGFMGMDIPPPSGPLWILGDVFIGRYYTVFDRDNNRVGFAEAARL

BACE1 [4] = target: T1, BACE1; experiment: PF-7802 labelling of HEK293T cells overexpressing BACE1; type: cell-based; parameters: endogenous in cells; host or cells: H4 human neuroglioma cells overexpressing human APP695; details: 1 μM PF-7802, in-gel fluorescence
Protocol: as §2, §3
Target sequence in this assay (P56817 46-501): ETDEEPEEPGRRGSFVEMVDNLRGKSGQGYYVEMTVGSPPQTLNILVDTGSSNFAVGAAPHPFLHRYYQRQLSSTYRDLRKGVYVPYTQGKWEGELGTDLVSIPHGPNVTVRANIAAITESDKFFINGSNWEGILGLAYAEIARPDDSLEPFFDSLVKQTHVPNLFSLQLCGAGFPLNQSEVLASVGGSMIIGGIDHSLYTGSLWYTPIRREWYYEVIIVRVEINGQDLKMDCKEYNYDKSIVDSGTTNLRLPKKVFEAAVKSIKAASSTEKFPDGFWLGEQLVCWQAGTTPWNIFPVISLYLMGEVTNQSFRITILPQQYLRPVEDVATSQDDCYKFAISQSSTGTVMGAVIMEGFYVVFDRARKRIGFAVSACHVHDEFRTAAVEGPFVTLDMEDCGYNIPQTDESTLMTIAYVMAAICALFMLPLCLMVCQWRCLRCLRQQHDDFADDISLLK

BACE1 [5] = target: T1, BACE1; experiment: BACE1 biochemical cellular assay (sAPPβ ELISA in H4 cells overexpressing APP695); type: cell-based; parameters: endogenous in cells; host or cells: H4 human neuroglioma cells overexpressing human APP695; details: sAPPβ ELISA, H4 neuroglioma cells with human wild-type APP
Protocol: Cellular inhibition of BACE1 was determined by measuring sAPPβ, the primary cleavage product of BACE-1, in H4 human neuroglioma cells overexpressing the wild-type human APP695. […] The colorimetric reaction was read by an EnVision plate reader (PerkinElmer).
Target sequence in this assay (P56817 46-501): as above

Microsomal stability (Microsomal stability)	IC50 (BACE1 [1]) [µM]	PF-7802 labelling in HEK293T cells overexpressing CatD (CatD [2])	IC50 (BACE2) [µM]	IC50 (CatD [3]) [µM]	IC50 (BACE1 [5]) [µM]	SMILES	Ocular pathology in wild-type mice (retina)	PF-7802 labelling in HEK293T cells overexpressing BACE1 (BACE1 [4])
–	–	–	–	–	–	C[C@@H](NC(=O)c1cc(C(=O)N[C@@H](Cc2ccccc2)[C@H](O)CNC2CC2)cc(N(C)S(C)(=O)=O)c1)c1ccccc1 [BACE1 inhibitor IV]	could also be induced in vivo in wild-type mice	–
poor microsomal stability	0.044	robust labelling of CatD was observed	0.12	1.2	0.32	C#CCOc1ccc(C(=O)c2ccc(COC[C@H]3C[C@H]4CSC(N)=N[C@@]4(c4ccc(F)cc4F)CO3)cc2)cc1 [PF-7802]	–	indistinguishable from a mock transfected control
